Experimental data: PubChem BioAssay AID246 (DTP/NCI, 2004)
Values joined by “and” are separate entries in the source; they are usually repeats but may differ in a detail not shown here. Equal values may be shown once. Toxic doses and inconclusive results are not listed.

Test system: BDF1 mice, P1081 chloroleukemia ip, survival T/C
Experiment: NCI In Vivo Anticancer Drug Screen. Data for tumor model P1081 Chloroleukemia (intraperitoneal) in B6D2F1 (BDF1) mice
Conditions: endpoint: mean survival time, higher = longer survival
Protocol: The antitumor activity of compounds was measured in mice bearing transplantable tumors. Survival or tumor size were measured and the results are expressed as the measurement made in the treated group (T) divided by the measurement made in the vehicle treated control group (C). The tumor model used in this assay is P1081 Chloroleukemia (intraperitoneal) in B6D2F1 (BDF1) mice

[1] = dose: 12.5 mg/kg/injection, schedule: Q01DX Z (ip), vehicle: carboxymethylcellulose (CMC)
[2] = dose: 25.0 mg/kg/injection, schedule: Q01DX Z (ip), vehicle: carboxymethylcellulose (CMC)
[3] = dose: 50.0 mg/kg/injection, schedule: Q01DX Z (ip), vehicle: carboxymethylcellulose (CMC)
[4] = dose: 100.0 mg/kg/injection, schedule: Q01DX Z (ip), vehicle: carboxymethylcellulose (CMC)
[5] = dose: 5.0 mg/kg/injection, schedule: Q01DX010 (ip), vehicle: saline
[6] = dose: 6.25 mg/kg/injection, schedule: Q01DX Z (ip), vehicle: carboxymethylcellulose (CMC)
[7] = dose: 10.0 mg/kg/injection, schedule: Q01DX010 (ip), vehicle: saline
[8] = dose: 20.0 mg/kg/injection, schedule: Q01DX010 (ip), vehicle: saline
[9] = dose: 40.0 mg/kg/injection, schedule: Q01DX010 (ip), vehicle: saline
[10] = dose: 12.5 mg/kg/injection, schedule: Q01DX010 (ip), vehicle: saline
[11] = dose: 25.0 mg/kg/injection, schedule: Q01DX010 (ip), vehicle: saline
[12] = dose: 50.0 mg/kg/injection, schedule: Q01DX010 (ip), vehicle: saline
[13] = dose: 7.5 mg/kg/injection, schedule: Q01DX Z (ip), vehicle: carboxymethylcellulose (CMC)
[14] = dose: 15.0 mg/kg/injection, schedule: Q01DX Z (ip), vehicle: carboxymethylcellulose (CMC)
[15] = dose: 30.0 mg/kg/injection, schedule: Q01DX Z (ip), vehicle: carboxymethylcellulose (CMC)

SMILES: N#Cc1cn(C2OC(CO)C(O)C2O)c2ncnc(N)c12 (stereo not drawn)
- T/C (dose: 0.03 mg/kg/injection, schedule: Q01DX Z (ip), vehicle: carboxymethylcellulose (CMC)): 97 % of control
- T/C (dose: 0.06 mg/kg/injection, schedule: Q01DX Z (ip), vehicle: carboxymethylcellulose (CMC)): 103 % of control
- T/C (dose: 0.12 mg/kg/injection, schedule: Q01DX Z (ip), vehicle: carboxymethylcellulose (CMC)): 103 % of control
- T/C (dose: 0.25 mg/kg/injection, schedule: Q01DX Z (ip), vehicle: carboxymethylcellulose (CMC)): 88 % of control
- T/C (dose: 0.5 mg/kg/injection, schedule: Q01DX Z (ip), vehicle: carboxymethylcellulose (CMC)): 94 % of control

SMILES: C[n+]1c2ccccc2nc2c(N)cc(N)cc21
- T/C (dose: 1.6 mg/kg/injection, schedule: Q01DX Z (ip), vehicle: carboxymethylcellulose (CMC)): 100 % of control
- T/C [1]: 110 % of control
- T/C [2]: 101 % of control

SMILES: CS(=O)(=O)OCC(O)C(O)COS(C)(=O)=O (stereo not drawn)
- T/C (dose: 94.0 mg/kg/injection, schedule: Q01DX Z (ip), vehicle: saline): 86 % of control
- T/C (dose: 188.0 mg/kg/injection, schedule: Q01DX Z (ip), vehicle: saline): 107 % of control
- T/C (dose: 375.0 mg/kg/injection, schedule: Q01DX Z (ip), vehicle: saline): 95 % of control
- T/C (dose: 750.0 mg/kg/injection, schedule: Q01DX Z (ip), vehicle: saline): 122 % of control
- T/C (dose: 1500.0 mg/kg/injection, schedule: Q01DX Z (ip), vehicle: saline): 166 % of control
- T/C (dose: 3000.0 mg/kg/injection, schedule: Q01DX Z (ip), vehicle: saline): 173 % of control

SMILES: Nc1nc(N)c2nc(CNc3ccc(C(=O)NC(CCC(=O)O)C(=O)O)cc3)cnc2n1 (stereo not drawn)
- T/C (dose: 0.05 mg/kg/injection, schedule: Q01DX010 (ip), vehicle: other): 120 % of control
- T/C (dose: 0.2 mg/kg/injection, schedule: Q01DX010 (ip), vehicle: other): 160 % of control and 170 % of control
- T/C (dose: 0.4 mg/kg/injection, schedule: Q01DX010 (ip), vehicle: other): 90 % of control
- T/C (dose: 8.0 micrograms/kg/injection, schedule: Q01DX Z (ip), vehicle: alkali diluted with saline): 117 % of control
- T/C (dose: 16.0 micrograms/kg/injection, schedule: Q01DX Z (ip), vehicle: alkali diluted with saline): 107 % of control
- T/C (dose: 31.0 micrograms/kg/injection, schedule: Q01DX Z (ip), vehicle: alkali diluted with saline): 99 % of control

SMILES: Cn1cc(NC(=O)c2cc(NC(=O)CN=C(N)N)cn2C)cc1C(=O)NCCC(=N)N
- T/C (dose: 6.3 mg/kg/injection, schedule: Q01DX Z (ip), vehicle: saline): 102 % of control
- T/C (dose: 12.5 mg/kg/injection, schedule: Q01DX Z (ip), vehicle: saline): 100 % of control
- T/C (dose: 25.0 mg/kg/injection, schedule: Q01DX Z (ip), vehicle: saline): 92 % of control

SMILES: O=c1[nH]c(=O)n(C2CC(O)C(CO)O2)cc1Br (stereo not drawn)
- T/C (dose: 16.0 mg/kg/injection, schedule: Q01DX Z (ip), vehicle: carboxymethylcellulose (CMC)): 86 % of control
- T/C (dose: 31.0 mg/kg/injection, schedule: Q01DX Z (ip), vehicle: carboxymethylcellulose (CMC)): 107 % of control and 88 % of control
- T/C (dose: 62.5 mg/kg/injection, schedule: Q01DX Z (ip), vehicle: carboxymethylcellulose (CMC)): 106 % of control and 99 % of control
- T/C (dose: 125.0 mg/kg/injection, schedule: Q01DX Z (ip), vehicle: carboxymethylcellulose (CMC)): 88 % of control
- T/C (dose: 250.0 mg/kg/injection, schedule: Q01DX Z (ip), vehicle: carboxymethylcellulose (CMC)): 101 % of control

SMILES: Cn1cnc([N+](=O)[O-])c1Sc1ncnc2nc[nH]c12
- T/C [2]: 165 % of control
- T/C [3]: 150 % of control
- T/C [4]: 104 % of control

SMILES: CN(C)c1ccc(/C=C/c2ccnc3ccccc23)cc1
- T/C (dose: 1.56 mg/kg/injection, schedule: Q01DX Z (ip), vehicle: water): 100 % of control
- T/C (dose: 3.12 mg/kg/injection, schedule: Q01DX Z (ip), vehicle: water): 94 % of control
- T/C [5]: 111 % of control and 100 % of control
- T/C [6]: 110 % of control
- T/C (dose: 6.25 mg/kg/injection, schedule: Q01DX Z (ip), vehicle: water): 101 % of control
- T/C [7]: 110 % of control and 100 % of control
- T/C [1]: 115 % of control
- T/C (dose: 12.5 mg/kg/injection, schedule: Q01DX Z (ip), vehicle: water): 107 % of control
- T/C [8]: 111 % of control and 100 % of control
- T/C [2]: 102 % of control
- T/C [9]: 111 % of control and 95 % of control
- T/C [3]: 119 % of control and 97 % of control
- T/C [4]: 104 % of control

SMILES: CC/C(=C(/CC)c1ccc(O)cc1)c1ccc(O)cc1
- T/C [10]: 100 % of control
- T/C (dose: 16.0 mg/kg/injection, schedule: Q01DX Z (sc), vehicle: steriod suspending solution): 95 % of control
- T/C [11]: 100 % of control and 105 % of control
- T/C [12]: 100 % of control and 105 % of control
- T/C (dose: 125.0 mg/kg/injection, schedule: Q01DX Z (sc), vehicle: steriod suspending solution): 88 % of control

SMILES: Cc1cc(N(CCCl)CCCl)ccc1N=Nc1ccccc1C(=O)O
- T/C [5]: 105 % of control
- T/C [13]: 101 % of control
- T/C [7]: 110 % of control and 95 % of control
- T/C [14]: 104 % of control
- T/C [8]: 110 % of control and 90 % of control
- T/C [15]: 104 % of control
- T/C [9]: 110 % of control

SMILES: C[C@H]1C(=O)O[C@@H]2CCN3CC=C(COC(=O)[C@](C)(O)[C@@]1(C)O)[C@H]23
- T/C (dose: 3.13 mg/kg/injection, schedule: Q01DX010 (ip), vehicle: saline): 115 % of control and 95 % of control
- T/C (dose: 6.25 mg/kg/injection, schedule: Q01DX010 (ip), vehicle: saline): 100 % of control
- T/C [13]: 106 % of control
- T/C [10]: 95 % of control
- T/C [14]: 99 % of control
- T/C [11]: 120 % of control and 95 % of control
- T/C [15]: 101 % of control
- T/C (dose: 60.0 mg/kg/injection, schedule: Q01DX Z (ip), vehicle: carboxymethylcellulose (CMC)): 106 % of control
- T/C (dose: 120.0 mg/kg/injection, schedule: Q01DX Z (ip), vehicle: carboxymethylcellulose (CMC)): 153 % of control
- T/C (dose: 240.0 mg/kg/injection, schedule: Q01DX Z (ip), vehicle: carboxymethylcellulose (CMC)): 103 % of control

SMILES: Nc1c(I)cc(I)cc1C(=O)O
- T/C [11]: 100 % of control
- T/C [12]: 110 % of control and 88 % of control
- T/C (dose: 100.0 mg/kg/injection, schedule: Q01DX010 (ip), vehicle: saline): 100 % of control and 105 % of control
- T/C (dose: 200.0 mg/kg/injection, schedule: Q01DX010 (ip), vehicle: saline): 111 % of control and 105 % of control

SMILES: CCCCn1cnc2c(=S)nc[nH]c21
- T/C [1]: 105 % of control
- T/C (dose: 16.0 mg/kg/injection, schedule: Q01DX010 (ip), vehicle: saline): 115 % of control
- T/C [2]: 98 % of control
- T/C [3]: 114 % of control
- T/C [4]: 98 % of control
- T/C (dose: 128.0 mg/kg/injection, schedule: Q01DX010 (ip), vehicle: saline): 95 % of control

SMILES: C[N+](C)(C)c1ncnc2nc[nH]c12
- T/C (dose: 3.1 mg/kg/injection, schedule: Q01DX Z (ip), vehicle: carboxymethylcellulose (CMC)): 94 % of control
- T/C [6]: 97 % of control
- T/C [1]: 100 % of control
- T/C [4]: 195 % of control

SMILES: S=c1nc[nH]c2nc[nH]c12
- T/C (dose: 1.56 mg/kg/injection, schedule: Q01DX Z (ip), vehicle: other): 108 % of control
- T/C (dose: 3.12 mg/kg/injection, schedule: Q01DX Z (ip), vehicle: other): 120 % of control
- T/C (dose: 5.0 mg/kg/injection, schedule: Q01DX010 (ip), vehicle: alkali diluted with saline): 110 % of control and 97 % of control
- T/C (dose: 10.0 mg/kg/injection, schedule: Q01DX010 (ip), vehicle: alkali diluted with saline): 105 % of control and 92 % of control
- T/C (dose: 20.0 mg/kg/injection, schedule: Q01DX010 (ip), vehicle: alkali diluted with saline): 106 % of control (2×) and 112 % of control
- T/C (dose: 40.0 mg/kg/injection, schedule: Q01DX010 (ip), vehicle: alkali diluted with saline): 118 % of control and 90 % of control and 103 % of control
- T/C (dose: 80.0 mg/kg/injection, schedule: Q01DX010 (ip), vehicle: alkali diluted with saline): 108 % of control and 116 % of control
- T/C (dose: 200.0 mg/kg/injection, schedule: Q01DX Z (ip), vehicle: other): 91 % of control and 100 % of control
